Test results taken from paper PMC5784132, “Investigation of 20S-hydroxyvitamin D3 analogs and their 1α-OH derivatives as potent vitamin D receptor agonists with anti-inflammatory activities” (Scientific Reports, 2018).

Molecular target: T1, rat CYP24A1 (Rattus norvegicus, UniProt Q09128)
T1 construct: made in house; host or cells: E. coli
T1 sequence (Q09128 36-514): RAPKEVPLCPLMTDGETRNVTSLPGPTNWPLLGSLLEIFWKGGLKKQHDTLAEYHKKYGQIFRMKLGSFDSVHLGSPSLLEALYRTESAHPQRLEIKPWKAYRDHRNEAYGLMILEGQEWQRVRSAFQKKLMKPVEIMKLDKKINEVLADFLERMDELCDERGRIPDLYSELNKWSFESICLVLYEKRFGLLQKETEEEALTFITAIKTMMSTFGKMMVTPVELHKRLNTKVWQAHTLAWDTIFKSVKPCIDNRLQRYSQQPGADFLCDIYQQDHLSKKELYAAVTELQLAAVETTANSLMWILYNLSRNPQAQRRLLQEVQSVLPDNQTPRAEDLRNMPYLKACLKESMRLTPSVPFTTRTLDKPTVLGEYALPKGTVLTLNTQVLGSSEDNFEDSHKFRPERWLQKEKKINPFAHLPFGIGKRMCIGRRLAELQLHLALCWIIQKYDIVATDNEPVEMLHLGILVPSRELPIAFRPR
Test: Time courses and product profiles for metabolism of analogs by rat CYP24A1
Type: in vitro ADME
Source text: These were identified from authentic standards as 20S,25(OH)2D3, and the two C24 diastereomers of 20S,24(OH)2D3[23],[27]. One of the C24 diastereomers, 20S,24 R(OH)2D3 is the major product and accounts for almost 70% of the total products. […] There were two major products formed from this analog, RT27 and RT30 (indicated by arrows), which accounted for approximately 20% and 30% of the total products, respectively. Compound 23 (Fig. S1E) was converted to at least 6 different products by the incubation with CYP24A1. In contrast, 13 tested under identical conditions generated only one major product with a retention time of 20 min (RT20) and three minor products (Fig. S1D). By 10 min of incubation, almost all of 13 had been metabolized by CYP24A1.
The activity of CYP24A1 with the different analogs was determined as a function of time to determine the initial linear region that could be used for kinetic studies, and to determine any differences in the pattern between analogs. […] The major product of 13 (Fig. S1C, RT20), accounted for 71% of the total secosteroids (products and substrate) at one min and by 20 min it was 95% of all secosteroids. The time course for 20S(OH)D3 in comparison to 4 and 33, reached maximum product formation early in the incubation, with the amount of product at the end of the incubation being only 2.2-fold higher than at one min. By 20 min, less than 15% of the 20S(OH)D3 had been metabolized. […] While initially being metabolized at the lowest rate of any of the analogs, 33 maintained its initial rate longer with more product being present at the end of the 20 min incubation than for any of the other analogs except 13 (Fig. 6).
Figure 6 Time courses for metabolism of 20S(OH)D3 analogs in phospholipid vesicles by rat CYP24A1. 20S(OH)D3, 4, 13, 23 and 33 were incorporated into phospholipid vesicles at a ratio of 0.018 mol/mol phospholipid and incubated with 0.14 µM rat CYP24A1 at 37 °C. Products were analyzed by HPLC.
Rat CYP24A1, mouse CYP27B1 and adrenodoxin and human adrenodoxin reductase were expressed in E. coli and purified as described before[28],[30],[35]. […] Samples from incubations with CYP24A1 were extracted with dichloromethane and analysed by HPLC using a 25 cm Grace Alltima C18 column, as before[27],[28]. […] Products from incubations with CYP27B1 were similarly extracted with dichloromethane and analyzed by reverse phase HPLC using a 15 cm Grace Smart C18 column and an acetonitrile in water gradient (10 min 45% to 100% acetonitrile then 20 min at 100% acetonitrile, at 0.5 mL/min).
Supplementary Fig. S1. […] Samples were analyzed by reverse-phase HPLC using an acetonitrile in water gradient as described in the Methods. […]

**Q.** How did the “amount of product at end of incubation relative to one min” value (20 min incubation versus one min) turn out when C=C1CC[C@H](O)C/C1=C/C=C1\CCC[C@@]2(C)[C@H]1CC[C@@H]2[C@@](C)(O)CCCC(C)C [20S(OH)D3, 20S-hydroxyvitamin D3] was run?
**A.** 2.2 fold

**Q.** And the “substrate metabolized by CYP24A1” value (by 20 min)?
**A.** less than 15%

**Q.** Which results are given for C=C1CC[C@H](O)C/C1=C/C=C1\CCC[C@@]2(C)[C@H]1CC[C@@H]2[C@@](C)(O)CCOC(C)C [compound 13]?
**A.** substrate metabolized by CYP24A1 (by 10 min of incubation): almost all; metabolism by CYP24A1 relative to 20S(OH)D3 (by 20 min, fold greater than 20S(OH)D3): 6 fold
